Test [1] deals with human immuno proteasome (LMP7) (Homo sapiens (Human), UniProt P28062). The experiment in a line: Determination of LMP7 activity (fluorescence intensity assay, Suc-LLVY-AMC). The test is classed as biochemical. An outline of the steps:
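Fluorogenic Suc-LLVY-AMC cleavage (40 μM substrate, 60 min, 37° C., ex 350/em 450 nm) measured after 0.25 nM human immunoproteasome was exposed to compound at 30 μM–15 pM. Preincubation was 20 min by default or 120 min (long) at 25° C., in Tris pH 7.4 with 0.03% SDS, 1 mM EDTA and 1% DMSO.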

In test [2] the target is human constitutive proteasome (Beta5) (Homo sapiens (Human), UniProt P28074). As to the kind of experiment: Determination of Beta5 activity (fluorescence intensity assay, Suc-LLVY-AMC). The format is biochemical. An outline of the steps:
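Purified human constitutive proteasome (1.25 nM) preincubated with compounds (30 μM–15 pM) for 20 min (default) or 120 min at 25 °C in 50 mM Tris pH 7.4, 0.03% SDS, 1 mM EDTA, 1% DMSO. Suc-LLVY-AMC substrate at 40 μM, 60 min at 37 °C. Fluorescence read at ex 350/em 450 nm.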

Setting [3] is: LMP7 versus Beta5, incubation for 20 minutes.
The mark [4] stands for this setting: LMP7 versus Beta5, long incubation (120 min).

pIC50: −log10 of the molar value. Some results are limits rather than exact numbers.

The pIC50 is −log10 of the IC50, conventionally taken in molar units. Read a low pIC50 as a large IC50. Regarding `C=CC(=O)N(CC(=O)N[C@@H](Cc1ccc(C)c(C)c1)B(O)O)c1ccccc1` [Compound No. 17, [(1R)-2-(3,4-dimethylphenyl)-1-[[2-(N-prop-2-enoylanilino)acetyl]-amino]ethyl]boronic Acid], the “Selectivity LMP7 vs Beta5” value in test [1] (setting [3]) is “+++ (70 ≤ 100)”. For the same compound, the negative-log IC50 (pIC50) was over 7.30 in test [1] (incubation for 20 minutes) and 5.30 to 6.30 in test [2] (incubation for 20 minutes).
As to `C=CC(=O)N(CC(=O)N[C@@H](Cc1ccc(C)c(C)c1)B(O)O)C1CC1` [Compound No. 71, [(1R)-1-[[2-[cyclopropyl(prop-2-enoyl)amino]acetyl]amino]-2-(3,4-dimethylphenyl)ethyl]boronic Acid], in test [1] (setting [4]), the “Selectivity LMP7 vs Beta5” value is reported as “+++++ (Selectivity ≥ 150)”. For the same compound, the pIC50 was over 7.30 in test [1] (long incubation (120 min)) and under 5.30 in test [2] (long incubation (120 min)).
`C=CC(=O)N(c1ccccc1)[C@H](C)C(=O)N[C@@H](Cc1ccc(C)cc1C)B(O)O` [Compound No. 45, [(1R)-2-(2,4-dimethylphenyl)-1-[[(2R)-2-(N-prop-2-enoylanilino)propanoyl]amino]ethyl]boronic Acid]: the “Selectivity LMP7 vs Beta5” value in test [1] (setting [4]) is given as “+++++ (Selectivity ≥ 150)”. Also, the values for the negative-log IC50 (pIC50) in test [1] (long incubation (120 min)) and in test [2] (long incubation (120 min)) were 6.30 to 7.30 and under 5.30, respectively.
For the compound `C=CS(=O)(=O)N(C)CC(=O)N[C@@H](Cc1ccc(C)cc1C)B(O)O` [Compound No. 15, [(1R)-2-(2,4-dimethylphenyl)-1-[[2-[methyl(vinylsulfonyl)amino]-acetyl]amino]ethyl]boronic Acid], the “Selectivity LMP7 vs Beta5” value in test [1] (setting [3]) is “+++ (70 ≤ 100)”. Besides, the negative-log IC50 (pIC50) in test [1] (incubation for 20 minutes) was over 7.30; in test [2] (incubation for 20 minutes), 5.30 to 6.30.
On to `C=CC(=O)N(CC(=O)N[C@@H](CCc1ccccc1)B(O)O)c1ccccc1F` [Compound No. 101, [(1R)-1-[[2-(2-fluoro-N-prop-2-enoyl-anilino)acetyl]amino]-3-phenyl-propyl]boronic acid], for which the “Selectivity LMP7 vs Beta5” value in test [1] (setting [4]) was “+++++ (Selectivity ≥ 150)”. Moreover, the negative-log IC50 (pIC50) is over 7.30 in test [1] (long incubation (120 min)) and under 5.30 in test [2] (long incubation (120 min)).
`C#CC(=O)N(CC(=O)N[C@@H](Cc1ccc(C)cc1C)B(O)O)c1ccccc1` [Compound No. 7, [(1R)-2-(2,4-dimethylphenyl)-1-[[2-(N-prop-2-ynoylanilino)acetyl]-amino]ethyl]boronic Acid]: the “Selectivity LMP7 vs Beta5” value in test [1] (setting [3]) is given as “++++ (100 ≤ Selectivity < 150)”. Besides, the pIC50 in test [1] (incubation for 20 minutes) was over 7.30; in test [2] (incubation for 20 minutes), 5.30 to 6.30.
Regarding `C=CC(=O)N(C)CC(=O)N[C@H](Cc1ccsc1)B(O)O` [Compound No. 73, [(1S)-1-[[2-[methyl(prop-2-enoyl)amino]acetyl]amino]-2-(3-thienyl)ethyl]boronic Acid], in test [1] (setting [4]), the “Selectivity LMP7 vs Beta5” value is “++ (50 ≤ Selectivity < 70)”. Further, the pIC50 in test [1] (long incubation (120 min)) is 5.30 to 6.30; in test [2] (long incubation (120 min)), under 5.30.
For the compound `C=CC(=O)N(C)CC(=O)N[C@@H](Cc1ccc(C)cc1C)B(O)O` [Compound No. 33, [(1R)-2-(2,4-dimethylphenyl)-1-[[2-[methyl(prop-2-enoyl)amino]-acetyl]amino]ethyl]boronic Acid], the “Selectivity LMP7 vs Beta5” value in test [1] (setting [3]) is “+++++ (Selectivity ≥ 150)”. Further, the figures for the negative logarithm of the IC50 (pIC50) in test [1] (incubation for 20 minutes) and in test [2] (incubation for 20 minutes) were over 7.30 and under 5.30, respectively.
Consider `C=CC(=O)N(CC)CC(=O)N[C@@H](Cc1ccc(C(F)(F)F)cc1C)B(O)O` [Compound No. 64, [(1R)-1-[[2-[ethyl(prop-2-enoyl)amino]acetyl]amino]-2-[2-methyl-4-(trifluoromethyl)phenyl]ethyl]boronic Acid], for which, in test [1] (setting [4]), the “Selectivity LMP7 vs Beta5” value was “+++++ (Selectivity ≥ 150)”. Besides, the negative-log IC50 (pIC50) in test [1] (long incubation (120 min)) was 6.30 to 7.30; in test [2] (long incubation (120 min)), under 5.30.
For the compound `C=CC(=O)N(c1ccccc1)[C@@H](C)C(=O)N[C@@H](Cc1ccc(C)c(C)c1)B(O)O` [Compound No. 48, [(1R)-2-(3,4-dimethylphenyl)-1-[[(2S)-2-(N-prop-2-enoylanilino)propanoyl]amino]ethyl]boronic Acid], in test [1] (setting [3]), the “Selectivity LMP7 vs Beta5” value is given as “++ (50 ≤ Selectivity < 70)”. Further, the pIC50 in test [1] (incubation for 20 minutes) was 5.30 to 6.30; in test [2] (incubation for 20 minutes) it was under 5.30.
Taken in the same sequence, the figures for `Cc1ccc(C[C@H](NC(=O)CN(C)C(=O)/C=C/Cl)B(O)O)c(C)c1` [Compound No. 13, [(1R)-1-[[2-[[(E)-3-chloroprop-2-enoyl]-methyl-amino]acetyl]amino]-2-(2,4-dimethylphenyl)ethyl]boronic Acid] were “+++++ (Selectivity ≥ 150)”, over 7.30 and 5.30 to 6.30.
With `C=CC(=O)N(C)CC(=O)N[C@@H](Cc1ccsc1)B(O)O` [Compound No. 75, [(1R)-1-[[2-[methyl(prop-2-enoyl)amino]acetyl]amino]-2-(3-thienyl)ethyl]boronic Acid], the “Selectivity LMP7 vs Beta5” value in test [1] (setting [4]) is given as “+++++ (Selectivity ≥ 150)”. Besides, the pIC50 in test [1] (long incubation (120 min)) was 6.30 to 7.30; in test [2] (long incubation (120 min)), under 5.30.
With `C=CC(=O)N(c1ccccc1)[C@H](C)C(=O)N[C@@H](Cc1ccc(C)c(C)c1)B(O)O` [Compound No. 47, [(1R)-2-(3,4-dimethylphenyl)-1-[[(2R)-2-(N-prop-2-enoylanilino)propanoyl]amino]ethyl]boronic Acid], in test [1] (setting [4]), the “Selectivity LMP7 vs Beta5” value is reported as “+++++ (Selectivity ≥ 150)”. Besides, the results for the pIC50 in test [1] (long incubation (120 min)) and in test [2] (long incubation (120 min)) were 6.30 to 7.30 and under 5.30, respectively.
Regarding `C=CC(=O)N1CCC[C@@H]1C(=O)N[C@@H](Cc1ccc(C)cc1C)B(O)O` [Compound No. 53, [(1R)-2-(2,4-dimethylphenyl)-1-[[(2R)-1-prop-2-enoylpyrrolidine-2-carbonyl]amino]ethyl]boronic Acid], the “Selectivity LMP7 vs Beta5” value in test [1] (setting [4]) is on record as “++ (50 ≤ Selectivity < 70)”. The pIC50 is 5.30 to 6.30 in test [1] (long incubation (120 min)) and under 5.30 in test [2] (long incubation (120 min)).
Regarding “[(1R)-1-[[2-[but-2-ynoyl(propyl)amino]acetyl]amino]-2-(2,4-dimethylphenyl)ethyl]boronic Acid [Compound No. 3]”, the “Selectivity LMP7 vs Beta5” value in test [1] (setting [3]) was “+++ (70 ≤ 100)”. Also, the results for the pIC50 in test [1] (incubation for 20 minutes) and in test [2] (incubation for 20 minutes) were 6.30 to 7.30 and under 5.30, respectively.
`C=CC(=O)N(CC)CC(=O)N[C@@H](Cc1ccc(C)c(C)c1)B(O)O` [Compound No. 14, [(1R)-2-(3,4-dimethylphenyl)-1-[[2-[ethyl(prop-2-enoyl)amino]acetyl]-amino]-ethyl]boronic Acid]: the “Selectivity LMP7 vs Beta5” value in test [1] (setting [3]) was “+++++ (Selectivity ≥ 150)”. The pIC50 in test [1] (incubation for 20 minutes) was 6.30 to 7.30; in test [2] (incubation for 20 minutes) it was under 5.30.
As for `C=CC(=O)N(CC(=O)N[C@@H](C[C@@H]1COc2ccccc21)B(O)O)c1ccccc1F` [Compound No. 100, [(1R)-2-[(3S)-2,3-dihydrobenzofuran-3-yl]-1-[[2-(2-fluoro-N-prop-2-enoyl-anilino)acetyl]amino]ethyl]boronic Acid], in test [1] (setting [4]), the “Selectivity LMP7 vs Beta5” value was “+++++ (Selectivity ≥ 150)”. In addition, the negative logarithm of the IC50 (pIC50) was over 7.30 in test [1] (long incubation (120 min)) and 5.30 to 6.30 in test [2] (long incubation (120 min)).
The like results for `C=CC(=O)N(CC(=O)N[C@@H](Cc1ccsc1)B(O)O)c1ccc(Cl)c(Cl)c1` [Compound No. 97, [(1R)-1-[[2-(3,4-dichloro-N-prop-2-enoyl-anilino)acetyl]amino]-2-(3-thienyl)ethyl]boronic Acid] were, in that order, “+++++ (Selectivity ≥ 150)”, over 7.30 and under 5.30.
Taken in the same sequence, the figures for `C=CC(=O)N(C)[C@H](C)C(=O)N[C@@H](Cc1ccc(C)cc1C)B(O)O` [Compound No. 52, [(1R)-2-(2,4-dimethylphenyl)-1-[[(2R)-2-[methyl(prop-2-enoyl)amino]propanoyl]amino]ethyl]boronic Acid] were “++ (50 ≤ Selectivity < 70)”, 5.30 to 6.30 and under 5.30.
Turning to `C=CC(=O)N(CC(=O)N[C@@H](Cc1ccc(C)cc1C)B(O)O)CC(F)(F)F` [Compound No. 57, [(1R)-2-(2,4-dimethylphenyl)-1-[[2-[prop-2-enoyl(2,2,2-trifluoroethyl)amino]acetyl]amino]ethyl]boronic Acid], the “Selectivity LMP7 vs Beta5” value in test [1] (setting [4]) is “+++++ (Selectivity ≥ 150)”. Besides, the values for the pIC50 in test [1] (long incubation (120 min)) and in test [2] (long incubation (120 min)) were 6.30 to 7.30 and under 5.30, respectively.
As for `C=CC(=O)N(C)CC(=O)N[C@@H](Cc1ccc2ccccc2c1)B(O)O` [Compound No. 82, [(1R)-1-[[2-[methyl(prop-2-enoyl)amino]acetyl]amino]-2-(2-naphthyl)ethyl]boronic Acid], the “Selectivity LMP7 vs Beta5” value in test [1] (setting [4]) is “+++++ (Selectivity ≥ 150)”. Also, the values for the negative logarithm of the IC50 (pIC50) in test [1] (long incubation (120 min)) and in test [2] (long incubation (120 min)) were over 7.30 and 5.30 to 6.30, respectively.
For the compound `C=CC(=O)N(C)CC(=O)N[C@@H](Cc1ccc(C)c(C)c1)B(O)O` [Compound No. 16, [(1R)-2-(3,4-dimethylphenyl)-1-[[2-[methyl(prop-2-enoyl)amino]-acetyl]amino]ethyl]boronic Acid], the “Selectivity LMP7 vs Beta5” value in test [1] (setting [3]) was “+++++ (Selectivity ≥ 150)”. Moreover, the values for the negative-log IC50 (pIC50) in test [1] (incubation for 20 minutes) and in test [2] (incubation for 20 minutes) were over 7.30 and under 5.30, respectively.
Regarding `C=CC(=O)N(CC(=O)N[C@@H](Cc1ccsc1)B(O)O)c1ccccc1Cl` [Compound No. 89, [(1R)-1-[[2-(2-chloro-N-prop-2-enoyl-anilino)acetyl]amino]-2-(3-thienyl)ethyl]boronic Acid], the “Selectivity LMP7 vs Beta5” value in test [1] (setting [4]) is “+++++ (Selectivity ≥ 150)”. The negative-log IC50 (pIC50) in test [1] (long incubation (120 min)) was 6.30 to 7.30; in test [2] (long incubation (120 min)), under 5.30.
On to `C=CC(=O)N(CC(=O)N[C@@H](Cc1ccc(C)cc1C)B(O)O)C(C)C` [Compound No. 27, [(1R)-2-(2,4-dimethylphenyl)-1-[[2-[isopropyl(prop-2-enoyl)amino]-acetyl]amino]ethyl]boronic Acid], for which, in test [1] (setting [3]), the “Selectivity LMP7 vs Beta5” value was “+++ (70 ≤ 100)”. Moreover, the pIC50 in test [1] (incubation for 20 minutes) is 6.30 to 7.30; in test [2] (incubation for 20 minutes) it was under 5.30.
